One experiment has as its system breast tumors. The experiment can be described thus: Tumor growth in mouse breast carcinoma models. In kind it is in vivo. The conditions noted are these: 10 mg/Kg paclitaxel every five days, three times; vs non-treated controls. The text has this: Herein, the possibility was examined that neoadjuvant paclitaxel promotes TMEM assembly and cancer cell dissemination and metastasis. This hypothesis was investigated in the following breast carcinoma models: (i) transgenic MMTV-PyMT mice bearing spontaneous breast tumors, (ii) FVB mice transplanted orthotopically with tumors from MMTV-PyMT donors, and (iii) two patient-derived xenografts (PDX), HT17 and HT33, developed previously in our laboratory (31). […] Treatment of all groups began at the early carcinoma stage (tumor size of ˜0.3 cm) when there is minimal or absent necrosis. It was decided to work with the early-stage PyMT mouse mammary carcinoma model because it more accurately reflects clinically relevant scenarios where most women present with small tumors of <2 cm (32). At the end of treatment all tumors were histologically classified as invasive carcinomas.
(§1) Drug Administration. The following drugs were administered in mice: Paclitaxel was given at 10 mg/Kg i.v every 5 days for 2 weeks; Doxorubicin was given at 5 mg/Kg i.v. every 5 days for 2 weeks; Cyclophosphamide was given at 120 mg/Kg i.p. only once; Rebastinib was given at 10 mg/Kg per os, every 3-4 days for 4 weeks.
Animals and Animal Procedures. MMTV-PyMT mice were bred in-house at the Albert Einstein College of Medicine (AECOM). Generation of MMTV-PyMT Mena^−/− has been described previously (28). […]

The test system of experiment [1] is Tie2^hi/Vegf^hi macrophages. The experiment can be described thus: Macrophage infiltration by multi-channel immunofluorescence (Iba1, Cd31, Tie2, Vegf). The experiment is classed as in vivo, mouse.
Text: The functional TMEM sites contain Tie2^hi/Vegf^hi macrophages and invasive tumor cells in perivascular regions (1), and it was independently shown that chemotherapy may promote mobilization of such Tie2^hi monocyte progenitors in primary tumors (8, 10). The Tie2^hi/Vegf^hi macrophage subpopulation was quantified herein using multi-channel immunofluorescence (IF) imaging (FIGS. 1D-F) (10, 14, 34). FIG. 1E illustrates a representative IF image of a Tie2^hi/Vegf^hi macrophage quantified using Cd31, Iba1, Vegf and Tie2 staining.
as §1
Animals and Animal Procedures. MMTV-PyMT mice were bred in-house at the Albert Einstein College of Medicine (AECOM). Generation of MMTV-PyMT Mena^−/− has been described previously (28). CFP- or Dendra2-labeled mammary carcinoma cells were generated on the FVB background by co-injection of Tg(MMTV-iCRE)1jwp together with Tg(PCAG-loxp-CATstop-loxp-CFP) or Tg(loxP-stop-loxP-PDendra2)jwp plasmids, respectively, by conventional methods in the Albert Einstein Transgenic Mouse Facility. All syngeneic transplantation models were generated through orthotopic transplantation of 1 mm×1 mm tumor chunks, using tumors of 1 cm-diameter from 12-16-week old MMTV-PyMT mena−/− or mena+/+ donor mice into 5-6 week-old FVB recipients. Tumor chunks were implanted on the fourth mammary pad on the left side. The generation of the ER^− HT17 and ER^+ HT33 patient-derived xenografts has been described previously (31). Animal handling and associated procedures were approved by the Institutional Animal Care and Use Committee (IACUC). Additional information is detailed in Supplementary Methods.
Immunofluorescence. Slides were deparaffinized by melting at 60° C. in an oven equipped with a fan for 20 minutes, followed by 2× xylene treatment for 20 minutes. Slides were rehydrated and antigen retrieval was done in 1 mM EDTA (pH 8.0) or 1× citrate buffer (pH 6.0) (Diagnostic BioSystems) at 97° C. for 20 minutes in a conventional steamer. Endogenous peroxidase was blocked by using 0.3% hydrogen peroxide in water, followed by incubation of slides in a blocking buffer solution (10% FBS, 1% BSA, 0.0025% fish skin gelatin in 0.05% PBST) for 60 minutes at room temperature. The following primary antibodies were used in different combinations, depending on the experiment: chicken anti-Mena^INV (0.25 ug/mL, generated in-house in the lab of John S. Condeelis), rabbit anti-Cd31 (1:400; 77699s; Cell Signaling), rabbit anti-Vegf (1:2,000; Rb 9031-PO-A; Thermo), rat anti-Tie2 (1:100; 16-5987-82; eBioscience), rabbit anti-Iba1 (1:6,000; 019-19741; Wako), rat anti-endomucin (1:500; sc-65495; Santa Cruz), rabbit anti-TMR (1:1,000; A-6397; Life Technologies). Secondary antibody treatment was performed using HRP-conjugated antibodies, and was followed by tyramide signal amplification (TSA), using the Perkin Elmer; Opal™ 4-color Fluorescent IHC kit, according to the manufacturer's directions. All slides were imaged on the Pannoramic 250 Flash II digital whole slide scanner, using a 20×0.75NA objective lens. Image analysis was performed in ImageJ, detailed in Supplementary Methods.

A further experiment has as its system lung metastases. The experiment can be described thus: Lung metastasis and single cancer cell dissemination in lungs. In kind it is in vivo, mouse. The text has this: To further determine the effect of paclitaxel on cancer cell dissemination to distant sites, we harvested lungs and evaluated metastatic foci histologically. An increase was found in both the metastatic incidence (>1 micrometastatic focus of >5 tumor cells) (FIG. 3H) and the number of cancer cell micrometastases in the lungs of paclitaxel-treated mice (FIG. 3I). In addition, we quantified single cell dissemination of breast cancer cells in the lungs of FVB-recipient mice after syngeneic transplantation of MMTV-PyMT/Dendra2^+ tumors using ex vivo microscopy, and found an approximately 2-fold increase (p<0.01) of single Dendra2^+ breast cancer cells in the lungs of paclitaxel-treated mice (FIG. 3J). Overall, data presented in this section indicate that in early-stage breast cancers chemotherapy increases vascular permeability at TMEM sites which is accompanied by increased cancer cell dissemination.
Histology and TMEM Immunohistochemistry.

A further experiment relates to breast cancer. The settings on record: addition of paclitaxel into preoperative NAC regimen; cited from earlier work.
[2] abbreviates: Mena^-/- PyMT-CFP transplanted tumors.

In the case of `CC(=O)O[C@H]1C(=O)[C@@]2(C)[C@H]([C@H](OC(=O)c3ccccc3)[C@]3(O)C[C@H](OC(=O)[C@H](O)[C@@H](NC(=O)c4ccccc4)c4ccccc4)C(C)=C1C3(C)C)[C@]1(OC(C)=O)CO[C@@H]1C[C@@H]2O` [paclitaxel], the tumor growth entry in the experiment with breast tumors is recorded as “delayed tumor growth”. For the same molecule, the “absolute number of Iba1^+ cells” value in experiment [1] (HT17-xenograft, entire tissue or perivascular niche, p<0.001) was “significantly increased”. For the same molecule, in experiment [1] (setting [2]), the “perivascular Iba1^+ macrophage infiltration” value was “increased” and the “perivascular Tie2^hi/Vegf^hi Iba1^+ macrophage infiltration” value is “increased”. Also, in experiment [1] (PyMT-spontaneous model), the “perivascular Tie2^hi/Vegf^hi macrophage subpopulation” value is listed as “significant increase”. Further, the “percentage of macrophage-specific Iba1^+ area” value in experiment [1] (all transplantation models, p<0.01) is on record as “significant increase”. Moreover, the “proportion of Tie2^hi/Vegf^hi macrophages among all Iba1^+ cells” value in experiment [1] (paclitaxel treatment) is on record as “increased”. The “density of perivascular Tie2^hi/Vegf^hi macrophages” value in experiment [1] (single agent vs vehicle, PyMT-transplantation and HT17 xenograft) is given as “significant increases”. Also, the “density of Tie2^hi/Vegf^hi macrophages” value in experiment [1] (vs vehicle-treated controls, entire tissue or perivascular niches, p<0.001) is given as “significantly higher”. In addition, the “increase of single Dendra2^+ breast cancer cells in the lungs” value in the experiment on lung metastases (FVB recipients of MMTV-PyMT/Dendra2^+ tumors, ex vivo microscopy, p<0.01) is listed as “approximately 2 fold”. Also, the “disseminated cells in the lungs” value with lung metastases (Mena^-/- PyMT-CFP transplants) is recorded as “failed to boost”. Moreover, in the experiment with lung metastases (histological evaluation), the “metastatic incidence (>1 micrometastatic focus of >5 tumor cells) in lungs” value is on record as “increase” and the “number of cancer cell micrometastases in the lungs” value was “increase”. In the experiment on breast cancer, the overall survival result is given as “does not improve” and the “rate of pathologic complete response (pCR)” value was “significantly increases”.

These data come from patent publication US12298308B2, “Neoadjuvant chemotherapy induces breast cancer metastasis through a TMEM-mediated mechanism” (Albert Einstein College of Medicine, priority 2017, dated 2025).
